From ChEMBL document CHEMBL2413014, “Imidazolium-based warheads strongly influence activity of water-soluble peptidic transglutaminase inhibitors” (Eur J Med Chem, 2013)

Legend:
[1] = target: T1, Coagulation factor XIII A chain (Homo sapiens, UniProt P00488); test: Inhibition of recombinant human F13a-mediated biotin X-cadaverine incorporation into N,N'-dimethylcasein after 1 hr
T1 sequence (P00488 whole entry): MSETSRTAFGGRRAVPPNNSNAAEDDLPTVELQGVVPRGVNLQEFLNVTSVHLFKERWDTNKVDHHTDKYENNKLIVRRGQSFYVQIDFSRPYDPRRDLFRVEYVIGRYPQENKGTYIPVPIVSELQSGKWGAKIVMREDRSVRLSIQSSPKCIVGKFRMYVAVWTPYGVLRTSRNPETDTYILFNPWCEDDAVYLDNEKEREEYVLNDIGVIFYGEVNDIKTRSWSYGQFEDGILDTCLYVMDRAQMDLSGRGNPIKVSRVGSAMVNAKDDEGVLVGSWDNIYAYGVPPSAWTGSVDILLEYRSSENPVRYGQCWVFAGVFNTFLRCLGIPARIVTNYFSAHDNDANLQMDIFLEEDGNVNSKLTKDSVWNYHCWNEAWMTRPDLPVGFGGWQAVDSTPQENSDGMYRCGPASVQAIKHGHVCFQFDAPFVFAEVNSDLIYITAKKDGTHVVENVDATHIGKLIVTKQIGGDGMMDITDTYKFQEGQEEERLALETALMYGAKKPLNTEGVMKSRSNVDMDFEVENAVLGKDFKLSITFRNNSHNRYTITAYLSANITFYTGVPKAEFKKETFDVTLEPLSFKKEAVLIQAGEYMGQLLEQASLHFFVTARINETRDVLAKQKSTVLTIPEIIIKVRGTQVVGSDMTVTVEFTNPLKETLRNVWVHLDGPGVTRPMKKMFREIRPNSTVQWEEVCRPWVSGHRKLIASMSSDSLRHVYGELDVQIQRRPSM

[2] = target: T2, Protein-glutamine gamma-glutamyltransferase (Homo sapiens, UniProt P21980); test: Inhibition of recombinant human tissue transglutaminase-mediated biotin X-cadaverine incorporation into N,N'-dimethylcasein after 1 hr
T2 sequence (P21980 whole entry): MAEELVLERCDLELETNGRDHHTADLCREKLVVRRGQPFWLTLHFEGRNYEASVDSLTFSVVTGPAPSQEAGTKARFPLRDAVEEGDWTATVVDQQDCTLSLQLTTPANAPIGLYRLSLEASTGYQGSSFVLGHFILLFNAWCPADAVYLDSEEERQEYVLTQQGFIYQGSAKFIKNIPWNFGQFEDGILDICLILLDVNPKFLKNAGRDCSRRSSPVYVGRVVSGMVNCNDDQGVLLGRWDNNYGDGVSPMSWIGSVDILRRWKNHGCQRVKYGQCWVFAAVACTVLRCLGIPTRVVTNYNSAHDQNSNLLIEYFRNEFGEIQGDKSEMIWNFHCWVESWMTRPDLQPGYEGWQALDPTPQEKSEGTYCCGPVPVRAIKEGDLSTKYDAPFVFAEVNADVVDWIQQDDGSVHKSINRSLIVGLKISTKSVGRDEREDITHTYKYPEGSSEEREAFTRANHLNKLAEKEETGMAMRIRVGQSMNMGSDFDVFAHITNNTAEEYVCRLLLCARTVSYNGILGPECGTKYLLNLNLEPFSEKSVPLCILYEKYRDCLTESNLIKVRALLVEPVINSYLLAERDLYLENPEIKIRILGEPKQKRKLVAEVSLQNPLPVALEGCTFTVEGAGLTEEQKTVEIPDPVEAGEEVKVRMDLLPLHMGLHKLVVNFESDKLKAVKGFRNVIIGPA

NIH3T3 = test: Cytotoxicity against Swiss mouse 3T3 cells up to 250 uM after 72 hrs; assay type: cell-based; settings: nih3t3, 72 h

Row | IC50 [1] | IC50 [2] | SMILES | Activity (NIH3T3)
1 | > 200 µM | > 200 µM | CCC[n+]1c(C)c(C)n(C)c1SCC(=O)CC[C@H](NC(=O)[C@H](Cc1ccccc1)NC(=O)OCc1ccccc1)C(=O)O | 
2 | > 200 µM | > 200 µM | CCn1c(C)c(C)[n+](CC)c1SCC(=O)CC[C@H](NC(=O)CNC(=O)OCc1ccccc1)C(=O)O | 
3 | > 200 µM | 20 µM | CC[S+](CC)CC(=O)CC[C@H](NC(=O)[C@H](Cc1ccccc1)NC(=O)OCc1ccccc1)C(=O)O | 
4 | 105 µM | 10 µM | C[S+](C)CC(=O)CC[C@H](NC(=O)[C@H](Cc1ccccc1)NC(=O)OCc1ccccc1)C(=O)O | 
5 | > 200 µM | > 200 µM | Cc1c(C)[n+](C)c(SCC(=O)CC[C@H](NC(=O)CNC(=O)OCc2ccccc2)C(=O)O)n1Cc1ccccc1 | 
6 | 5 µM | 3 µM | Cc1c(C)[n+](C)c(SCC(=O)CC[C@H](NC(=O)[C@H](Cc2ccccc2)NC(=O)OCc2ccccc2)C(=O)O)n1C.[Br-] | Non-toxic
7 | > 200 µM | 20 µM | CC[S+](CC)CC(=O)CC[C@H](NC(=O)CNC(=O)OCc1ccccc1)C(=O)O | 
8 | > 200 µM | > 200 µM | Cc1c(C)[n+](C)c(SCC(=O)CC[C@H](NC(=O)[C@H](Cc2ccccc2)NC(=O)OCc2ccccc2)C(=O)O)n1-c1ccccc1 | 
9 | 30 µM | > 200 µM | CCC[n+]1c(C)c(C)n(C)c1SCC(=O)CC[C@H](NC(=O)CNC(=O)OCc1ccccc1)C(=O)O | 
10 | > 200 µM | > 200 µM | Cc1c(C)[n+](C)c(SCC(=O)CC[C@H](NC(=O)[C@H](Cc2ccccc2)NC(=O)OCc2ccccc2)C(=O)O)n1Cc1ccccc1 | 
11 | > 200 µM | > 200 µM | Cc1c(C)[n+](C)c(SCC(=O)CC[C@H](NC(=O)CNC(=O)OCc2ccccc2)C(=O)O)n1-c1ccccc1 | 
12 | 20 µM | 10 µM | CCCc1c(CCC)[n+](C)c(SCC(=O)CC[C@H](NC(=O)CNC(=O)OCc2ccccc2)C(=O)O)n1C | 
13 | 2 µM | 1 µM | Cc1c(C)[n+](C)c(SCC(=O)CC[C@H](NC(=O)CNC(=O)OCc2ccccc2)C(=O)O)n1C | 
14 | 50 µM | > 200 µM | CCn1c(C)c(C)[n+](CC)c1SCC(=O)CC[C@H](NC(=O)[C@H](Cc1ccccc1)NC(=O)OCc1ccccc1)C(=O)O | 
15 | 10 µM | 5 µM | CCCc1c(CCC)[n+](C)c(SCC(=O)CC[C@H](NC(=O)[C@H](Cc2ccccc2)NC(=O)OCc2ccccc2)C(=O)O)n1C | 
16 | > 200 µM | 8 µM | C[S+](C)CC(=O)CC[C@H](NC(=O)CNC(=O)OCc1ccccc1)C(=O)O | 
